One data set concerns chronic heart failure. As to the kind of experiment: Chronic heart failure in rabbits after large myocardial infarction. The format is in vivo. The settings on record: heart failure induced by large myocardial infarction, i.v. at a dose of from 0.1 to 10 mg/kg. The protocol:
The effect of a S1P receptor agonist, e.g. a compound of formula I on chronic heart failure is tested in rabbits where heart failure is induced as a consequence of a large myocardial infarction (R P. Hof et al. J. Cardiovasc. Pharmacol., 1991, 18,361-368). The changes of atrial natriuretic factor or baroflex sensitivity are a reliable indicator of the status of the heart failure in this animal model.

Data set [1] can be described thus: Acute toxicity p.o. in rats. The following applies: rat, in vivo, po. The procedure: (§1) S1P receptor agonists are well tolerated at dosages required for use in accordance with the present invention. For example, FTY720 has an acute LD50 >10 mg/kg p.o. in rats and monkeys.
A short description of data set [2]: Acute toxicity p.o. in monkeys. The settings on record: monkey, in vivo, po. The procedure: as §1

Each structure is given as a SMILES string. Some results are limits rather than exact numbers.

As to `CCCCCCCCc1ccc(CCC(N)(CO)CO)cc1` [Compound A, 2-amino-2-[2-(4-octylphenyl)ethyl]propane-1,3-diol], in the data set with chronic heart failure, the “effect on the heart failure” value is “beneficial effect”. In addition, the LD50 in data set [1] and in data set [2] was greater than 10 mg/kg each time.

By LD50 is commonly meant the dose at which mortality reaches 50%. A high value points to a less toxic substance.

(Values after patent US7910626B2, “Use of S1P receptor agonists in heart diseases” (Novartis AG, priority 2002, dated 2011).)
